“Also recorded” adds a separate entry of the source.
Key:
[1] = system: cells of lung sputum sample; experiment: Fluorescence spectral imaging (LCTF/CCD) of TCPP-labeled lung sputum cells on slides; type: cell-based, human; details: fixed sputum cells on slide, images separated by spectral emission (530 nm vs 660 nm layers)
Source text: According to one embodiment of the present invention, a biological specimen, for example a sputum sample is processed using a thin prep protocol onto a microscope slide. […] Minimizing corrosive effects to the plasma membrane is important as the TCPP is shown to localize on the plasma membrane of the cell surface. The cells are processed to separate the cells from the mucous and cell fragments. Each prepared slide contains a monolayer of the sputum cells. After preparing the slides, the labeling reagent TCPP is dissolved in concentrations between 0.05 ug/ml-4.0 ug/ml in an aqueous alcohol containing between 50% and 90% isopropanol alcohol solution. […]
To gather our data an image capture system having a detector capable of quantifying emission of photons from a TCPP labeled cell across light spectrum from about 350 nm to about 800 nm was employed according to one embodiment of the present invention. […]
Referring now to FIG. 1 is a cell labeled or stained with TCPP according to one embodiment of the present invention. […] The autofluorescence of the cells is detected in the green channel 560 +/−30nm and the fluorescence of the TCPP labeling compound on the cell is detected in the red channel 660 +/−30 nm. […] By tuning the LCTF to different frequencies during imaging, the system permits information to be gathered and analyzed over a broad spectrum. […]

[2] = system: neoplastic cells; details: cell sample incubated 6-24 hours with 200 μg/ml TCPP; cited from earlier work

In the case of `O=C(O)c1ccc(-c2c3nc(c(-c4ccc(C(=O)O)cc4)c4ccc([nH]4)c(-c4ccc(C(=O)O)cc4)c4nc(c(-c5ccc(C(=O)O)cc5)c5ccc2[nH]5)C=C4)C=C3)cc1` [TCPP, 5, 10, 15, 20 tetrakis (4-carboxyphenyl) porphine], the “location of TCPP in cell structures” value [1] is listed as “emitted exclusively from the plasma membrane; also recorded: adheres only to surface features and does not migrate into internal cell structures” and the “location of TCPP in cells after incubation” value [2] is listed as “entered cells and bound to the perinuclear membrane and mitochondria of neoplastic cells”.

— patent US20150160197A1, “System and Method for Analyzing Samples Labeled with 5, 10, 15, 20 Tetrakis (4-Carboxyphenyl) Porphine (TCPP)” (bioAffinity Technologies, Inc., priority 2009, published 2015)
